Experimental data: the NIST ThermoML archive (doi:10.1016/j.jct.2009.08.002)
Numbers after ± are expanded uncertainties.

Legend:
[1] = molar heat capacity at constant pressure; settings: 298.15 K; 101.33 kPa; Liquid; Large sample (1 g) DSC
[2] = molar heat capacity at constant pressure; xn = mol fraction of the nth substance listed; settings: Liquid, Large sample (1 g) DSC, x2 = 0

Row | SMILES | molar heat capacity at constant pressure [1] | molar heat capacity at constant pressure ([2]; 283.15 K) | molar heat capacity at constant pressure ([2]; 288.15 K) | molar heat capacity at constant pressure ([2]; 293.15 K) | molar heat capacity at constant pressure ([2]; 298.15 K) | molar heat capacity at constant pressure ([2]; 303.15 K) | molar heat capacity at constant pressure ([2]; 308.15 K) | molar heat capacity at constant pressure ([2]; 313.15 K) | molar heat capacity at constant pressure ([2]; 318.15 K) | molar heat capacity at constant pressure ([2]; 323.15 K)
1 | CCCCCCn1cc[n+](C)c1.F[B-](F)(F)F [1-hexyl-3-methylimidazolium tetrafluoroborate] | 432 ± 8 J/K/mol | – | – | – | – | – | – | – | – | –
2 | CCCCCCCC[n+]1ccn(C)c1.F[B-](F)(F)F [1-methyl-3-octylimidazolium tetrafluoroborate] | 498.3 ± 11 J/K/mol | – | – | – | – | – | – | – | – | –
3 | CC#N [acetonitrile] + CCCCCCCC[n+]1ccn(C)c1.F[B-](F)(F)F | – | 90.03 ± 1.4 J/K/mol | 90.3 ± 1.4 J/K/mol | 90.6 ± 1.4 J/K/mol | 90.93 ± 1.4 J/K/mol | 91.28 ± 1.4 J/K/mol | 91.66 ± 1.4 J/K/mol | 92.07 ± 1.4 J/K/mol | 92.5 ± 1.4 J/K/mol | 92.96 ± 1.4 J/K/mol
4 | CC#N [acetonitrile] | 90.93 ± 1.4 J/K/mol | – | – | – | – | – | – | – | – | –
5 | CC#N [acetonitrile] + CCCCCCn1cc[n+](C)c1.F[B-](F)(F)F | – | 90.03 ± 1.4 J/K/mol | 90.3 ± 1.4 J/K/mol | 90.6 ± 1.4 J/K/mol | 90.93 ± 1.4 J/K/mol | 91.28 ± 1.4 J/K/mol | 91.66 ± 1.4 J/K/mol | 92.07 ± 1.4 J/K/mol | 92.5 ± 1.4 J/K/mol | 92.96 ± 1.4 J/K/mol
